Laboratory results reported in US20120276122A1, “METHODS FOR DIAGNOSIS AND TREATMENT OF CELLULAR PROLIFERATIVE DISORDERS” (Sanford-Burnham Medical Research Institute, priority 2010, published 2012).

Legend:
[1] = test system: ATF2; settings: cited from earlier work; for ATF2 nuclear exclusion: melanoma cells
[2] = test system: melanoma; settings: syngeneic mice, human melanoma xenografts; cited from earlier work
[3] = test system: melanoma cells; settings: melanoma cells versus melanocytes; cited from earlier work
[4] = test system: SCC9 cells; test: ATF2 mitochondrial localization, immunofluorescent staining of coverslip-grown cells; type: cell-based; settings: for cells with ATF2 accumulation at the mitochondria: SCC9, 5 μM etoposide overnight, 3 replicate coverslips
Protocol: FIG. 1A) is an image depicting control, 5 μM etoposide-treated (ETO, overnight treatment), UVC-treated (20 J/m^2), ionizing radiation-treated (IR, 5Gy), or 40 ng/ml leptomycin B (LMB) and ETO co-treated SCC9 cells grown on coverslips were immunofluorescently stained for HSP60,ATF2 or DNA. Immunostained control and ETO panels represent 89±4% and 64±11%, respectively, of the cells from 3 independent replicate coverslips per condition (n>100 cells counted per replicate). […] C) is a photograph depicting coverslip-grown SCC9 cells that were co-treated with 40 ng/ml leptomycin B (LMB) and ETO overnight, and were subsequently fixed and immunofluorescently stained as indicated. D) is a gel depicting SCC9 cells transfected with the Jun2 promoter-luciferase construct and assayed for luciferase activity prior to (Control) or after ETO treatment. E) is a bar graph depicting luciferase activity of mitochondria (M) purified from ETO-treated SCC9 cells subject to proteolysis protection assay with titrated concentrations of trypsin: 0.2 (1), 0.1 (2), 0.05 (3), 0.025 (4), or 0.0125 (5) μg in the absence or presence of 1% Triton X-100 (TX) detergent. Scale bars represent 10 μm.
Following indicated treatments, coverslip-grown cells were fixed in fixation buffer containing 4% formaldehyde and 2% sucrose in phosphate buffered saline (PBS) for 20 minutes at room temperature. After fixation, coverslips were rinsed twice in PBS and permeabilized in permeabilization buffer (0.4% Triton X-100 (TX-100)/0.4% bovine serum albumin (BSA) in PBS) for 20 minutes. Primary antibodies were applied at 1:250 dilution in staining buffer (0.1% TX-100/0.1% BSA in PBS) overnight at 4° C. in a humid chamber. Coverslips were subsequently subject to 5 standing washes in wash buffer (0.2% TX-100/0.2% BSA in PBS, 5 minutes per wash). Secondary antibodies (Alexa Fluor secondary 350, 488 or 568, Invitrogen) were applied at 1:250 dilution in staining buffer for 2-3 hours at room temperature in a humid chamber in the dark. Prior to mounting with Vectorshield containing DAPI (Vector Laboratories, CA), coverslips were washed twice additionally in wash buffer. Immunofluorescent analysis was conducted on an Olympus TH4-100 fluorescent microscope. At least 3 Z-planes per field were captured and analyzed using Slidebook V.4.1, and Z-projection images of average intensity were constructed using ImageJ V.1.43u.

[5] = test system: Jun2 promoter; test: Jun2 promoter-luciferase assay (ATF2 transcriptional activity); type: cell-based; settings: for Jun2-luciferase activity: SCC9
Protocol: C) is a photograph depicting coverslip-grown SCC9 cells that were co-treated with 40 ng/ml leptomycin B (LMB) and ETO overnight, and were subsequently fixed and immunofluorescently stained as indicated. D) is a gel depicting SCC9 cells transfected with the Jun2 promoter-luciferase construct and assayed for luciferase activity prior to (Control) or after ETO treatment. E) is a bar graph depicting luciferase activity of mitochondria (M) purified from ETO-treated SCC9 cells subject to proteolysis protection assay with titrated concentrations of trypsin: 0.2 (1), 0.1 (2), 0.05 (3), 0.025 (4), or 0.0125 (5) μg in the absence or presence of 1% Triton X-100 (TX) detergent. Scale bars represent 10 μm.
FIG. 3A) is an image depicting coverslip-grown SCC9 cells treated with 1 or 5 μM PKCε translocation inhibitor overnight, and immunofluorescently stained with indicated antibodies. B) is a photograph depicting coverslip-grown SCC9 cells treated with 10 nM siRNA targeting PKCε overnight were immunofluorescently stained with indicated antibodies. […] F) is a photograph depicting coverslip-grown SCC9 cells were transfected with HA-tagged wildtype ATF2 (WT), ATF2T52A or ATF2T52E, and subsequently immunofluorescently stained with indicated antibodies. G-H) is a series of bar graphs that show quantitation of (Left) SCC9 cells transfected with Jun2 promoter-luciferase construct and empty vector (EV) or caPKCε, assayed for luciferase activity after ETO treatment. (Right) SCC9 cells stably knocked down for ATF2 with a 3′-UTR-targeted shRNA, reconstituted with Jun2 promoter-luciferase construct and ATF2 (WT), ATF2T52A or ATF2T52E and subsequently assayed for luciferase activity. Scale bars represent 10 μm.

[6] = molecular target: T1, PKCε (Homo sapiens, UniProt Q02156); test: In vitro kinase assay, PKCε phosphorylation of GST-tagged ATF2 50-100 peptide; type: biochemical
T1 sequence (Q02156 1-737): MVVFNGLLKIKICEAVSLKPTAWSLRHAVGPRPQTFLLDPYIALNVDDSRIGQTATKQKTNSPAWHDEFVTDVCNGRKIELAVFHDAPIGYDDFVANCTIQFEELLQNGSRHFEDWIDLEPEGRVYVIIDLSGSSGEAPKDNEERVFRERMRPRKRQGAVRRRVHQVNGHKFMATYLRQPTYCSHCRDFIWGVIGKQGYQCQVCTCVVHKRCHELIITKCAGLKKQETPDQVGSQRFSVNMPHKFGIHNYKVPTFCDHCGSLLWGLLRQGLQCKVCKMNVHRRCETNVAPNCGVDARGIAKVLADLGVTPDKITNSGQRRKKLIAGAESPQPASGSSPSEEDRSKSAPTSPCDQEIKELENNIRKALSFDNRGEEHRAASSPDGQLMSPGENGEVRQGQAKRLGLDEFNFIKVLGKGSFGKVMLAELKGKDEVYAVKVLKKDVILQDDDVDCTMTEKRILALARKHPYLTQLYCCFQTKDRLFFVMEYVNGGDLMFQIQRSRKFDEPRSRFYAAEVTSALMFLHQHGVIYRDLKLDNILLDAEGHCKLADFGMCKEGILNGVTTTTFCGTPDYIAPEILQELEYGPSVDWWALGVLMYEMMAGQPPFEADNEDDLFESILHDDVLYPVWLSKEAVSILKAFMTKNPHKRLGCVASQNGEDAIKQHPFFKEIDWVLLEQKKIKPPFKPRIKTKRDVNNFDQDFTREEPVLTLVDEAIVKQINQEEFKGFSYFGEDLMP
Protocol: To determine whether Thr52, the predicted PKCε site for phosphorylation of ATF2, regulates mitochondrial translocation of ATF2, phosphorylation of ATF2 by PKCε in vitro was assessed, as well as the localization of ATF2^T52A (a non-phosphorylatable alanine phosphomutant) and ATF2^T52E (a glutamic acid phosphomimic). […] This phosphorylation is inhibited upon addition of PKCε catalytic inhibitor, Gö6850 (FIG. 3E). […] Collectively, these findings establish that ATF2 mitochondrial localization is regulated by PKCε through phosphorylation at T52.

[7] = test system: ATF2 pT52; test: Immunoblot densitometry of pT52/Total ATF2; type: cell-based; settings: SCC9, etoposide treatment
Source text: B) Control or ATF2 -knocked down LU1205 cells were subject to immunoblot analysis with indicated antibodies. […] D) is an image showing control or ETO-treated coverslip-grown LU1205, 501Mel or UACC903 cells immunofluorescently stained with indicated antibodies.

[8] = test system: SCC9 cells; test: HK1 co-localization with mitochondria (immunostaining and MitoTracker); type: cell-based; settings: SCC9, 5 μM etoposide overnight
Source text: The arrowheads indicate HA-positive cells. Scale bars represent 10 μm.

[9] = test system: PKCε pS729; test: Immunoblot of pS729 PKCε (active PKCε); type: cell-based; settings: SCC9, 5 μM overnight
[10] = test system: SCC9 cells; test: Annexin-V / propidium iodide staining and FACS analysis (cell death); type: cell-based; settings: SCC9, 5 μM, overnight, representative FACS plot
Protocol: Cells were stained with Annexin-V and subject to FACS analysis. n=10,000 cells per replicate; 3 replicates per condition were performed. •: p=0.0001; #: p<0.0001.
For FACS analyses, n=10,000 cells per replicate over 3 independent replicates.

For “ATF2 50-60 peptide: 10 amino acid long peptide derived from ATF2 (amino acids 50-60), contains T52 (EMTLKFGPARN; UniProt P15336 50-60, looked up, fragment)”, the ATF2 transcriptional activity [1] is listed as “inhibit ATF2 transcriptional activity”, the ATF2 nuclear exclusion [1] is listed as “caused nuclear exclusion of ATF2” and the melanoma growth [2] is listed as “inhibit melanoma growth in syngeneic mice”. For the same compound, the sensitization to apoptosis [3] was “sensitized melanoma cells (but not melanocytes) to apoptosis”.
For “ATF2 50-100 peptide: 50 amino acid long peptide derived from ATF2 (amino acids 50-100), contains T52 (EMTLKFGPARNDSVIVADQTPTPTRFLKNCEEVGLFNELASPFENEFKKAS; UniProt P15336 50-100, looked up, fragment)”, the ATF2 transcriptional activity [1] is listed as “inhibit ATF2 transcriptional activity”, the ATF2 nuclear exclusion [1] is listed as “caused nuclear exclusion of ATF2” and the melanoma growth [2] is listed as “inhibit melanoma growth in syngeneic mice”. The sensitization to apoptosis [3] was “sensitized melanoma cells (but not melanocytes) to apoptosis”.
For CCC(=C/[C@H](C)C/C=C/C(C)=C/[C@@H](C)C(=O)[C@@H](C)[C@H](O)[C@@H](C)C/C(C)=C/C(=O)O)/C=C/[C@@H]1OC(=O)C=C[C@@H]1C [leptomycin B], the “mitochondrial accumulation of ATF2 following etoposide treatment” value ([4]; SCC9, 40 ng/ml leptomycin B with ETO) was “prevented mitochondrial accumulation of ATF2” and the “ATF2 mitochondrial translocation following inhibition of PKCε” value ([4]; SCC9, leptomycin B pre-treatment 40 ng/ml 6 hours, then 5 μM PKCε-i) was “efficiently blocked”.
With CN(C)CCCn1cc(C2=C(c3c[nH]c4ccccc34)C(=O)NC2=O)c2ccccc21 [Gö6850] the Jun2-luciferase activity [5] was “reduce Jun2-luciferase activity to similar extents as knockdown of ATF2” and the “PKCε phosphorylation of WT ATF2 peptide” value [6] was “inhibited”.
For COc1cc([C@@H]2c3cc4c(cc3[C@@H](O[C@@H]3O[C@@H]5CO[C@@H](C)O[C@H]5[C@H](O)[C@H]3O)[C@H]3COC(=O)[C@H]23)OCO4)cc(OC)c1O [etoposide], the “levels of pT52” value [7] was “lower”, the Jun2-luciferase activity [5] was “reduce Jun2-luciferase activity to similar extents as knockdown of ATF2” and the “reduction of luciferase activity driven by the Jun2 promoter” value ([5]; SCC9, after ETO treatment) was roughly 50%. The “HK1 co-localization with mitochondria” value [8] was “enhanced”, the “cells with ATF2 accumulation at the mitochondria” value [4] was roughly 64% and the “cells with ATF2 accumulation at the mitochondria” value ([4]; listed as ETO) was 64±11%. The “PKCε phosphorylation on Ser729” value [9] was “decreased”, the “Annexin V-negative (AV−) percentage” value [10] was 89.5% and the “Annexin V-positive (AV+) percentage” value [10] was 11.5%.
